This note sets out measurements from patent US20230183237A1, “COMPETITIVE AND NONCOMPETITIVE INHIBITORS OF THE MUSCARINIC ACETYLCHOLINE RECEPTOR M5” (Vanderbilt University, priority 2020, published 2023).

The IC50 is the concentration at which inhibition is half-maximal.

Structures are written as SMILES. Where two headings read alike, the source gives them in different places.

The test has as its target T1, hM5 (Homo sapiens, UniProt P08912).
T1 construct: expressed in transfected cells
T1 sequence (P08912 1-532): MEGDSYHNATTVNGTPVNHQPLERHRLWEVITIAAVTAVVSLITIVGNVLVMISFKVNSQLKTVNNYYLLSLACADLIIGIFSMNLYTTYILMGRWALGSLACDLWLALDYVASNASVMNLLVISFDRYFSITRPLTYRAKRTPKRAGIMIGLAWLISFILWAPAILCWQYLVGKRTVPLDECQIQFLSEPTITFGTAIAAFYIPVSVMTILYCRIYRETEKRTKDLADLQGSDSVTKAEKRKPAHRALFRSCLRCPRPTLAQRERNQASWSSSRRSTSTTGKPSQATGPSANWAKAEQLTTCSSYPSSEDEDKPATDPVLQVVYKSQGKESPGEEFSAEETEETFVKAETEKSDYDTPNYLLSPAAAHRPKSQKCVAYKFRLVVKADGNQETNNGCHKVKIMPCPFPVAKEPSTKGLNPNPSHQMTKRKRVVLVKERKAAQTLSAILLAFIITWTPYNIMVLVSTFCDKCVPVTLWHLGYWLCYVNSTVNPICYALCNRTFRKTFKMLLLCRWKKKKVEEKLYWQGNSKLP
As to the kind of experiment: Calcium mobilization concentration-response (IC50 vs EC80 acetylcholine), CHO hM5. The test is classed as cell-based. As to conditions: CELL LINE hM5, read-out: IC50. In a few lines:
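IC50 values derive from percent maximal acetylcholine response after an EC80 ACh addition, measured as kinetic calcium fluorescence (static ratio, max−min). Test compounds were added 140 s before agonist. Cells: stable hM5-CHO in HEPES-buffered HBSS with 2.5 mM probenecid, pH 7.4; ≥3 independent triplicate determinations.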
(A change in cytosolic calcium serves as a functional read-out for many receptors and channels.)

Setting [1] is: calcium mobilization, EC80 acetylcholine addition.

As for `[2H]C([2H])([2H])Oc1c(S(=O)(=O)N2CCC(c3nn4ncnc4cc3C)CC2)cnn1C` [Compound 617, 6-(1-((5-(methoxy-d3)-1-methyl-1H-pyrazol-4-yl)sulfonyl)piperidin-4-yl)-7-methyl-[1,2,4]triazolo[1,5-b]pyridazine], the IC50 (vs EC80 acetylcholine) is 1980 nM.

As to `Cc1cc2ncnn2cc1C1=CCN(S(=O)(=O)c2cc3c(cc2C)OCC3C)CC1` (centres unmarked) [Compound 84, 6-(1-((3,6-dimethyl-2,3-dihydrobenzofuran-5-yl)sulfonyl)-1,2,3,6-tetrahydropyridin-4-yl)-7-methyl-[1,2,4]triazolo[1,5-a]pyridine], under setting [1], the IC50 amounted to 185 nM.

On to `O=S(=O)(c1cnc2n1CCCC2)N1CCC(c2cn3ncnc3cc2Cl)CC1` [Compound 343], for which, under setting [1], the IC50 is 12 nM.

Take `[2H]C([2H])([2H])n1cc(S(=O)(=O)N2CCC(c3cn4ncnc4cc3C)CC2)c(C2CC2)n1` [Compound 132, 6-(1-((3-cyclopropyl-1-(methyl-d3)-1H-pyrazol-4-yl)sulfonyl)piperidin-4-yl)-7-methyl-[1,2,4]triazolo[1,5-a]pyridine]: under setting [1], the IC50 was found to be 1300 nM.

On to `[2H]C([2H])([2H])Oc1c(S(=O)(=O)N2CCC(c3cn4ncnc4c(F)c3C)CC2)cnn1C` [Compound 614, 8-fluoro-6-(1-((5-(methoxy-d3)-1-methyl-1H-pyrazol-4-yl)sulfonyl)piperidin-4-yl)-7-methyl-[1,2,4]triazolo[1,5-a]pyridine], for which, for the setting “vs EC80 acetylcholine”, the IC50 came out at 59 nM.

On to `O=S(=O)(c1ccc2ncsc2c1)N1CCC(c2cc3cc[nH]c3nn2)CC1` [Compound 22, 6-((4-(7H-pyrrolo[2,3-c]pyridazin-3-yl)piperidin-1-yl)sulfonyl)benzo[d]thiazole], for which, under setting [1], the IC50 is 2600 nM.

In the case of `Cn1cnc2cc(C3CCN(S(=O)(=O)c4ccc5ncsc5c4)CC3)ccc21` [Compound 8, 6-((4-(1-methyl-1-benzo[d]imidazol-5-yl)piperidin-1-yl)sulfonyl)benzo[d]thiazole], the IC50 under setting [1] is over 10000 nM.

On to `O=S(=O)(c1cnc2ccccn12)N1CCC(c2cn3ncnc3cc2C(F)(F)F)CC1` [Compound 338, 6-(1-(imidazo[1,2-a]pyridin-3-yl)sulfonyl)piperidin-4-yl)-7-(trifluoromethyl_-[1,2,4]triazolo[1,5-a]pyridine], for which the IC50 under setting [1] was 164 nM.

`O=S(=O)(c1cnc2sccn12)N1CCC(c2cn3ncnc3cc2C(F)(F)F)CC1` [Compound 518, 5-((4-(7-(trifluoromethyl)-[1,2,4]triazolo[1,5-a]pyridin-6-yl)piperidin-1-yl)sulfonyl)imidazo[2,1-b]thiazole]: the IC50 (vs EC80 acetylcholine) was 68 nM.

With `[2H]C1([2H])CC(c2cn3ncnc3cc2C(F)F)CC([2H])([2H])N1S(=O)(=O)c1cn(C)nn1` [Compound 595, 7-(difluoromethyl)-6-(1-((1-methyl-1H-1,2,3-triazol-4-yl)sulfonyl)piperidin-4-yl-2,2,6,6-d4)-[1,2,4]triazolo[1,5-a]pyridine], for the setting “vs EC80 acetylcholine”, the IC50 was found to be 784 nM.

As to `Cc1c(C2CCN(S(=O)(=O)c3cnn(C)c3CC#N)CC2)cn2ncnc2c1F` [Compound 439, 2-(4-((4-(8-fluoro-7-methyl-[1,2,4]triazolo[1,5-a]pyridin-6-yl)piperidin-1-yl)sulfonyl)-1-methyl-1H-pyrazol-5-yl)acetonitrile], where the note is “vs EC80 acetylcholine”, the IC50 worked out at 162 nM.

Turning to `CCc1cc2ncnn2cc1C1CCN(S(=O)(=O)c2cnc(C)o2)CC1` [Compound 496, 5-((4-(7-ethyl-[1,2,4]triazolo[1,5-a]pyridin-6-yl)piperidin-1-yl)sulfonyl)-2-methyloxazole], the IC50 (vs EC80 acetylcholine) came out at 889 nM.

Regarding `Cc1cc2ncnn2cc1C1CCN(S(=O)(=O)c2ccsc2)CC1` [Compound 125, 7-methyl-6-(1-(thiophen-3-ylsulfonyl)piperidin-4-yl)-[1,2,4]triazolo[1,5-a]pyridine], under setting [1], the IC50 is over 10000 nM.

For `Cc1nc(C)c(S(=O)(=O)N2CCC(c3cn4ncnc4cc3C)CC2C)s1` (centres unmarked) [Compound 360, 2,4-dimethyl-5-((2-methyl-4-(7-methyl-[1,2,4]triazolo[1,5-a]pyridin-6-yl)piperidin-1-yl)sulfonyl)thiazole], under setting [1], the IC50 is over 10000 nM.
